Here are results for seven compounds from PubChem BioAssay (NCI).

SMILES strings stand for the structures. Values joined by “and” are separate entries in the source; they are usually repeats but may differ in a detail not shown here. Identical values can stand only once.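 Dose response: 5 concentrations. Exposure: 48 h. Format: 96-well plates. Endpoint: linear interpolation; highest concentration if not reached. GI50 marks 50% less growth. TGI marks complete inhibition of growth.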

Among the test systems are 786-0 renal; EKVX NSCLC; HCT-116 colon; HOP-92 NSCLC; IGROV1 ovarian; M14 melanoma; MCF7 breast; NCI-H522 lung; SK-OV-3 ovarian; SN12C renal.
Holding throughout (experiment): growth of human tumour cells (NCI), 48 h

In the case of `COC(=O)CSSCc1ccc([N+](=O)[O-])cc1`, the TGI was 65.3 µM in the assay with 786-0 renal; 69.2 µM with EKVX NSCLC; 59.6 µM in the assay with HCT-116 colon; greater than 100 µM in the assay on HOP-92 NSCLC; 17.1 µM in the assay on IGROV1 ovarian; 46.4 µM with M14 melanoma. Besides, the TGI in the assay with MCF7 breast turned out to be 34.3 µM; with NCI-H522 lung, 30.8 µM; with SK-OV-3 ovarian, 46.8 µM; in the assay with SN12C renal, 34.1 µM.
Regarding `O=C1/C=C/[C@@H](O)[C@@H]2C[C@@H](O)C[C@H]2/C=C/CCC[C@H](C(F)(F)F)O1`, the GI50 in the assay with 786-0 renal was 0.126 µM; in the assay with EKVX NSCLC, 1.33 µM; with HCT-116 colon, 0.153 µM; in the assay with HOP-92 NSCLC, 0.126 µM; with IGROV1 ovarian, 0.561 µM; in the assay on M14 melanoma, 0.171 µM. The GI50 in the assay on MCF7 breast is 0.0896 µM; in the assay with NCI-H522 lung it was 0.191 µM; with SK-OV-3 ovarian, 16.4 µM; in the assay with SN12C renal, 0.779 µM. Moreover, the TGI in the assay on 786-0 renal was 0.469 µM; in the assay on EKVX NSCLC, greater than 100 µM; in the assay with HCT-116 colon, 0.385 µM; in the assay with HOP-92 NSCLC it was 0.568 µM; in the assay with IGROV1 ovarian, 4.16 µM; with M14 melanoma, 3.71 µM. For the same compound, the TGI was 0.813 µM in the assay with MCF7 breast, 0.515 µM in the assay on NCI-H522 lung, greater than 100 µM with SK-OV-3 ovarian and 13.8 µM with SN12C renal.
With `CCCCCCCCCCCC[n+]1ccc2ccccc2c1`, the GI50 is 1.49 µM in the assay with 786-0 renal; 0.4 µM with EKVX NSCLC; 0.857 µM in the assay with HCT-116 colon; 0.3 µM with HOP-92 NSCLC; 0.413 µM in the assay on IGROV1 ovarian; 0.588 µM with M14 melanoma. The GI50 is 0.937 µM with MCF7 breast, 0.41 µM in the assay with NCI-H522 lung, 1.43 µM with SK-OV-3 ovarian and 1.17 µM in the assay with SN12C renal. Besides, the TGI in the assay on 786-0 renal was found to be 2.93 µM; with EKVX NSCLC, 1.77 µM; with HCT-116 colon it was 2.37 µM; with HOP-92 NSCLC, 1.79 µM; in the assay with IGROV1 ovarian, 1.85 µM; in the assay with M14 melanoma it was 2.79 µM. Besides, the TGI is 2.88 µM in the assay with MCF7 breast, 1.88 µM with NCI-H522 lung, 3.1 µM with SK-OV-3 ovarian and 2.65 µM with SN12C renal.
With `C=C1C(=O)OC2/C=C(/C)C(OC(C)=O)C/C=C(\C)C(OC(=O)C3(C)OC3C)C(O)C12` (stereo not drawn), the TGI with 786-0 renal, with EKVX NSCLC, with HCT-116 colon, with HOP-92 NSCLC, with IGROV1 ovarian and in the assay with M14 melanoma was greater than 100 µM throughout. Moreover, the TGI in the assay with MCF7 breast is greater than 100 µM; with NCI-H522 lung, 28.6 µM; in the assay on SK-OV-3 ovarian, greater than 100 µM; in the assay on SN12C renal it was greater than 100 µM.
Regarding `CCCCCCCCCCCCCC[C@@H](O)[C@H]1CC[C@H]([C@H]2CC[C@H]([C@H](O)CCCCCC[C@@H](O)CC3=C[C@H](C)OC3=O)O2)O1`, the GI50 in the assay on 786-0 renal is 4.31 µM; in the assay with EKVX NSCLC, 1.68 µM; in the assay with HCT-116 colon, 2.2 µM; in the assay on HOP-92 NSCLC it was greater than 25 µM; in the assay on IGROV1 ovarian it was 2.61 µM; with M14 melanoma, 1.74 µM. In addition, the GI50 in the assay with MCF7 breast is 1.14 µM; in the assay with SN12C renal, greater than 25 µM. In addition, the TGI was greater than 25 µM with 786-0 renal; 9.27 µM and > 25 µM with EKVX NSCLC; greater than 25 µM with HCT-116 colon; 8.37 µM and > 25 µM in the assay with HOP-92 NSCLC; 8.75 µM and > 25 µM in the assay on IGROV1 ovarian; 3.44 µM and > 25 µM in the assay with M14 melanoma. The TGI in the assay with MCF7 breast was 3.47 µM and > 25 µM; with NCI-H522 lung, greater than 25 µM; in the assay with SK-OV-3 ovarian, greater than 25 µM; in the assay on SN12C renal, 6.47 µM and > 25 µM.
On to `COc1cc2c3c(n(C)c(=O)c2cc1OC)-c1ccc(C#N)cc1C3=O`, for which the GI50 is greater than 100 µM in the assay with 786-0 renal; greater than 100 µM in the assay with EKVX NSCLC; greater than 100 µM in the assay with HCT-116 colon; greater than 100 µM with HOP-92 NSCLC; 30.5 µM with IGROV1 ovarian; greater than 100 µM with M14 melanoma. For the same compound, the GI50 was 51.1 µM in the assay on MCF7 breast, 52 µM in the assay with NCI-H522 lung, greater than 100 µM in the assay on SK-OV-3 ovarian and greater than 100 µM in the assay on SN12C renal. Also, the TGI in the assay with 786-0 renal, in the assay on EKVX NSCLC, in the assay on HCT-116 colon, with HOP-92 NSCLC, in the assay on IGROV1 ovarian and in the assay on M14 melanoma was greater than 100 µM in each case. The TGI with MCF7 breast, with NCI-H522 lung, in the assay with SK-OV-3 ovarian and with SN12C renal was greater than 100 µM throughout.
As for `COc1cc2c(=O)[nH]c3cc([N+](=O)[O-])ccc3c2cc1[N+](=O)[O-]`, the GI50 is 11.9 µM with 786-0 renal; 7.08 µM with EKVX NSCLC; 2.25 µM in the assay on HCT-116 colon; 15.8 µM with HOP-92 NSCLC; 3.87 µM with IGROV1 ovarian; 7 µM in the assay on M14 melanoma. Moreover, the GI50 in the assay with MCF7 breast was 0.979 µM; in the assay on NCI-H522 lung, 1.67 µM; in the assay with SK-OV-3 ovarian, 8.7 µM; in the assay on SN12C renal it was 9.97 µM. Moreover, the TGI with 786-0 renal, in the assay on EKVX NSCLC, in the assay on HCT-116 colon, in the assay with HOP-92 NSCLC, in the assay with IGROV1 ovarian and with M14 melanoma was greater than 100 µM in each case. Moreover, the TGI with MCF7 breast is greater than 100 µM; in the assay with NCI-H522 lung it was greater than 100 µM; in the assay on SK-OV-3 ovarian it was 38.2 µM; with SN12C renal, greater than 100 µM.
